# According to patent publication US20150368617A1, “METHOD FOR FORMING ENDOTHELIAL CELLS” (Korea Advanced Institute of Science and Technology (KAIST), priority 2012, published 2015):
# How the values were obtained:
# Type in all cases: cell-based, mouse
# Flk1+ MPCs = experiment: Immunofluorescence staining of differentiating Flk1+ MPCs (CD144, αSMA, PHH3)
# Description: Cultured cells were fixed with 2% paraformaldehyde (PFA) and blocked with 5% goat (or donkey) serum in PBST (0.3% Triton X-100 in PBS) for 1 hr at room temperature (RT). The cells were incubated overnight at 4┌ C with the following primary antibodies: anti-mouse CD144 (clone 11D4.1, BD Pharmingen™), anti-mouse phospho-histone H3 (rabbit polyclonal, Upstate), anti-mouse cTnT (NeoMarkers), Cy3-conjugated anti-┌ SMA (clone 1A4, Sigma), and anti-mouse CD31 (clone 2H8, Chemicon). After washing in PBST 4 times, the cells were incubated for 2 hrs at RT with the following secondary antibodies: Cy3-conjugated anti-rabbit IgG (Jackson ImmunoResearch), Cy3-conjugated anti-hamster IgG (Jackson ImmunoResearch), Cy3-conjugated anti-mouse IgG antibody (Jackson ImmunoResearch) and FITC or Cy3-conjugated anti-rat (Jackson ImmunoResearch). F-actin and nuclei were stained with TRITC-phalloidin (Invitrogen) and 4′,6-diamidino-2-phenylindole (DAPI, Invitrogen), respectively. The cells were then mounted in fluorescent mounting medium (DAKO Corporation).
# CD144+ ECs = experiment: FACS phenotypic analysis of EC and MC markers at day 6.5
# Description: FIGS. 12A to 12B-6. ROCK suppression-induced ECs express EC-specific genes. (FIG. 12A) Diagram of cell preparations for phenotype analyses of EC and MC differentiation. Flk1+ MPCs were incubated with only VEGF-A (50 ng/ml) (Control) and VEGF-A (50 ng/ml) plus Y27632 (10┌ M) (Y72632) for 2 days. (FIG. 12B-1 to FIG. 12B-6) Representative FACS analysis for phenotypic markers in CD144+ cells; pan-endothelial, mural, and arterial-, venous- and lymphatic EC.
# Cells were harvested with 0.25% trypsin-EDTA (Invitrogen) or dissociation buffer (Invitrogen) and resuspended in HBSS/2% FBS at 1×10^6 cells per 100┌ l. The cells were incubated for 20 min with the following antibodies: biotin-conjugated anti-mouse Flk1 (clone AVAS12a1, eBioscience), allophycocyanin (APC)-conjugated anti-mouse CD140a (clone APA5, eBioscience), phycoerythrin(PE)-conjugated anti-mouse CD31 (clone 390, eBioscience), Alexa Fluor® 647-conjugated anti-mouse CD144 (clone BV13, eBioscience), PE-conjugated anti-mouse D114 (clone HMD4-1, Biolegend), PE-conjugated anti-mouse Tie2 (clone TEK4, eBioscience), PE-conjugated anti-mouse Endoglin (clone MJ7/18, Biolegend), anti-mouse ICAM2 (clone 3C4, Biolegend), APC-conjugated anti-mouse CD140b (clone APBS, eBioscience), PE-conjugated anti-mouse LYVE1 (clone ALY7, eBioscience), anti-mouse VEGFR3 (goat polyclonal, R&D systems), anti-mouse EphB4 (clone VEB4-7E4, Hycult biotech), and PE-conjugated anti-mouse Notch1 (clone HMN1-12, Biolegend). After washing in HBSS/2% FBS twice, the cells were incubated with the following secondary antibodies: PE-conjugated streptavidin (eBioscience), PE-conjugated anti-rat IgG2a (eBioscience), and FITC-conjugated anti-goat IgG (Invitrogen). Dead cells were excluded by 7-aminoactinomycin D (7-AAD, Invitrogen).
# ICAM2+ ECs = experiment: Cell adhesion assay, ICAM2+ ECs; settings: 6 hrs after plating; in the presence of VEGF-A
# Description: Sorted Flk1+ MPCs or ICAM2+ ECs were plated onto Matrigel coated plates at a density of 10,000 cells/cm^2. Six hrs after plating, non-adherent cells were removed by washing and the cell number of adherent cells was counted following trypsinization. The percentage of adherent cells was calculated as (counted cell number/initial seeded cell number)×100.
# VYI-ECs [1] = experiment: Matrigel tube forming assay; settings: addition of Y27632 10 μM to VEGF-A
# Description: The purified VYI-ECs (described in detail in the Results section) were plated on Matrigel-filled plates at a density of 2-4×10^4 cells/cm^2, and were incubated in differentiation medium containing VEGF-A (50 ng/ml) with or without Y27632 (10┌ M). After 12 hrs, the tube structures were observed using Axiovert 25 microscope (Carl Zeiss) and phase-contrast images were taken using DeltaPix infinity X digital camera and DpxView LE software (DeltaPix, Denmark).
# VYI-ECs [2] = experiment: Angiogenesis assay using a microfluidic device; settings: 72 hr; co-treatment of Y27632 with VEGF-A
# Description: To test the angiogenic property of VYI-ECs, we utilized a microfluidic platform that was modified from the previously described device. Briefly, a poly-dimethylsiloxane (PDMS) based microfluidic platform containing three channels was fabricated with poly-dimethylsiloxane using a soft lithography process. Two empty spaces in between three parallel channels were filled with a mixture of type I collagen (3 mg/ml, rat tail, BD Biosciences) and fibronectin (50 μg/ml, Invitrogen), which together acted as an ECM scaffold. The center channel was coated with fibronectin (10 μg/ml), and was seeded with 40˜50 μl of VYI-EC suspension (1×10^7 cells/ml). The device was tilted vertically for 1 hr to allow the cells to attach onto the sidewall of the scaffold by gravity. The cells were then seeded onto the other sidewall by flipping the device upside down. Cell culture media in the side channels containing VEGF-A (50 ng/ml) or VEGF-A (50 ng/ml) plus Y27632 (10 μM) were exchanged with fresh media every 12 hr. Phase contrast and immunofluorescent images were acquired to analyze the angiogenic sprouting formation of VYI-ECs.
smiles,measurement,setting,value
C[C@@H](N)[C@H]1CC[C@H](C(=O)Nc2ccncc2)CC1 [Y27632],population of PHH3+/CD144+ ECs compared to control,"Flk1+ MPCs; 36 hrs, Y27632 10 μM plus VEGF-A",3.7 fold
same,number of surrounding αSMA+MCs,"Flk1+ MPCs; day 6.5, Y27632 10 μM",decreased
same,size and number of CD144+ EC colonies,"Flk1+ MPCs; day 6.5, Y27632 10 μM",increased
same,"population of CD144+ ECs expressing pan-endothelial cell surface markers (Flk1, Tie2, endoglin and ICAM2) compared to control",CD144+ ECs,~2.0 fold
same,population of CD144+ ECs that express D114 (arterial),CD144+ ECs,4.6 fold
same,population of CD144+ ECs that express EphB4 (venous),CD144+ ECs,2.4 fold
same,population of CD144+ ECs that express LYVE-1 (lymphatic),CD144+ ECs,2.1 fold
same,population of CD144+ ECs that express Notch1 (arterial),CD144+ ECs,2.4 fold
same,population of CD144+ ECs that express VEGFR3 (lymphatic),CD144+ ECs,3.8 fold
same,populations of cells expressing αSMA and CD140b,CD144+ ECs,markedly reduced
same,adhesion of ICAM2+ ECs onto the plate,ICAM2+ ECs,1.3 fold
same,increase of formation of vascular networks,VYI-ECs [1],1.7 fold
same,increase of length of sprouting CD144+ VYI-ECs,VYI-ECs [2],1.7 fold
